Source: paper PMC8924551, “Functional Characterization of a Flavone Synthase That Participates in a Kumquat Flavone Metabolon” (Frontiers in Plant Science, 2022)

Tested on: T1, FcFNSII-2
T1 construct: microsomes of Saccharomyces cerevisiae WAT11 co-expressing Arabidopsis ATR1 P450 reductase
Experiment: yeast microsome assay, UPLC-Q-TOF-MS, Michaelis-Menten fit
Assay type: biochemical, Fortunella crassifolia
Conditions: 1 mM NADPH, 100 mM Tris/HCl pH 7.0, 30°C, 1 h; product apigenin

- Km: 3.77 µM
SMILES: O=C1C[C@@H](c2ccc(O)cc2)Oc2cc(O)cc(O)c21 [naringenin]
